Experiment [1] in a line: Inhibition of avian Influenza A virus SN 33 (H1N1) neuraminidase infected in dog MDCK cells using MU-NANA as substrate assessed as reduction in viral replication incubated for 72 hrs by spectrofluorometric analysis.
A short description of experiment [2]: Inhibition of […] Influenza A Taiwan 3446 2002(H3N2) neuraminidase infected in dog MDCK cells using MU-NANA as substrate assessed as reduction in viral replication incubated for 72 hrs by spectrofluorometric analysis.

pIC50: −log10 of the molar value.

For `CC(=O)N[C@H]1[C@H]([C@H](O)[C@H](O)CO)OC(C(=O)O)=C[C@@H]1NC(=N)NC(=O)CSc1ccc2ccccc2c1`, the pIC50 was 7.70 in experiment [1] and 7.60 in experiment [2].
On the same counts, the results for `CC(=O)N[C@H]1[C@H]([C@H](O)[C@H](O)CO)OC(C(=O)O)=C[C@@H]1NC(=N)NC(=O)CCc1ccc2ccccc2c1` are 7.12 and 7.17.

Usually pIC50 stands for the negative decadic logarithm of the IC50, by convention in mol/L.
